Measured values taken from ChEMBL document CHEMBL1154443, “In vivo studies of 5-arylethenylbenzofuroxans in acute murine models of Chagas' disease” (Eur J Med Chem, 2008).
Active and inactive are the calls of the source.

How the values were obtained:
[1] = system: Trypanosoma cruzi; test: Antitrypanosomal activity against Trypanosoma cruzi Tulahuen 2 infected Swiss mouse assessed as prevention of liver congestion at 120 mg/kg/day, po; assay type: functional, organism-based
[2] = system: Trypanosoma cruzi; test: Antitrypanosomal activity against Trypanosoma cruzi Tulahuen 2 infected Swiss mouse assessed as prevention of muscle inflammatory infiltrates at 120 mg/kg/day, po; assay type: functional, organism-based; conditions: Muscle tissue
[3] = Toxicity against Trypanosoma cruzi Tulahuen 2 infected Swiss mouse assessed as mouse survival at 120 mg/kg/day, po after 25 days; assay type: organism-based; set-up: route oral; conditions: in vivo, read-out: Activity
[4] = system: Trypanosoma cruzi; test: Antitrypanosomal activity against Trypanosoma cruzi Tulahuen 2 infected Swiss mouse assessed as reduction in circulating trypomastigotes antibody level at 120 mg/kg/day, po after 90 days postinfection; assay type: functional, organism-based
[5] = system: Trypanosoma cruzi; test: Antitrypanosomal activity against Trypanosoma cruzi Colombiana infected Swiss mouse assessed as prevention of heart inflammatory infiltrates at 120 mg/kg/day, po; assay type: functional, organism-based
[6] = system: Trypanosoma cruzi; test: Antitrypanosomal activity against Trypanosoma cruzi Tulahuen 2 infected Swiss mouse assessed as reduction in circulating trypomastigotes antibody level at 120 mg/kg/day, po after 60 days postinfection; assay type: functional, organism-based
[7] = system: Trypanosoma cruzi; test: Antitrypanosomal activity against Trypanosoma cruzi Colombiana infected Swiss mouse assessed as prevention of liver congestion at 120 mg/kg/day, po; assay type: functional, organism-based
[8] = Toxicity against Trypanosoma cruzi Colombiana infected Swiss mouse assessed as mouse survival at 120 mg/kg/day, po after 25 days; assay type: organism-based; set-up: route oral; conditions: in vivo, read-out: Activity
[9] = system: Trypanosoma cruzi; test: Antitrypanosomal activity against Trypanosoma cruzi Tulahuen 2 infected Swiss mouse assessed as prevention of heart inflammatory infiltrates at 120 mg/kg/day, po; assay type: functional, organism-based
[10] = system: Trypanosoma cruzi; test: Antitrypanosomal activity against Trypanosoma cruzi Colombiana infected Swiss mouse assessed as prevention of skeletal muscle inflammatory infiltrates at 120 mg/kg/day, po; assay type: functional, organism-based; conditions: Muscle tissue
[11] = system: Trypanosoma cruzi; test: Antitrypanosomal activity against Trypanosoma cruzi Colombiana infected Swiss mouse assessed as reduction in circulating trypomastigotes antibody level at 120 mg/kg/day, po after 44 days postinfection; assay type: functional, organism-based
[12] = system: Trypanosoma cruzi; test: Antitrypanosomal activity against Trypanosoma cruzi Colombiana infected Swiss mouse assessed as reduction in circulating trypomastigotes antibody level at 120 mg/kg/day, po after 90 days postinfection; assay type: functional, organism-based
[13] = system: Trypanosoma cruzi; test: Antitrypanosomal activity against Trypanosoma cruzi Argentinian isolate infected Swiss mouse assessed as prevention of skeletal muscle inflammatory infiltrates at 60 mg/kg/day, po; assay type: functional, organism-based; conditions: Muscle tissue
[14] = system: Mus musculus; test: Toxicity against Trypanosoma cruzi infected CD1 mouse assessed as effect on liver histology at 450 mg/kg, po; assay type: organism-based; set-up: dose 450 mg/kg, route oral; conditions: in vivo
[15] = system: Mus musculus; test: Toxicity against Trypanosoma cruzi infected CD1 mouse assessed as effect on heart histology at 450 mg/kg, po; assay type: organism-based; set-up: dose 450 mg/kg, route oral; conditions: in vivo
[16] = system: Trypanosoma cruzi; test: Antitrypanosomal activity against Trypanosoma cruzi Argentinian isolate infected Swiss mouse assessed as prevention of heart inflammatory infiltrates at 60 mg/kg/day, po; assay type: functional, organism-based
[17] = system: Mus musculus; test: Toxicity against Trypanosoma cruzi infected CD1 mouse assessed as effect on kidney histology at 450 mg/kg, po; assay type: organism-based; set-up: dose 450 mg/kg, route oral; conditions: in vivo
[18] = system: Trypanosoma cruzi; test: Antitrypanosomal activity against Trypanosoma cruzi Argentinian isolate infected Swiss mouse assessed as inhibition of heart amastigote nests at 60 mg/kg/day, po; assay type: functional, organism-based
[19] = system: Mus musculus; test: Toxicity against Trypanosoma cruzi infected CD1 mouse assessed as effect on heart histology at 300 mg/kg, ip; assay type: organism-based; set-up: dose 300 mg/kg, route intraperitoneal; conditions: in vivo
[20] = system: Mus musculus; test: Toxicity against Trypanosoma cruzi infected CD1 mouse assessed as effect on kidney histology at 300 mg/kg, ip; assay type: organism-based; set-up: dose 300 mg/kg, route intraperitoneal; conditions: in vivo
[21] = system: Trypanosoma cruzi; test: Antitrypanosomal activity against Trypanosoma cruzi Argentinian isolate infected Swiss mouse assessed as prevention of liver congestion at 60 mg/kg/day, po; assay type: functional, organism-based
[22] = system: Trypanosoma cruzi; test: Antitrypanosomal activity against Trypanosoma cruzi Argentinian isolate infected Swiss mouse assessed as inhibition of skeletal muscle amastigote nests at 60 mg/kg/day, po; assay type: functional, organism-based; conditions: Muscle tissue
[23] = system: Mus musculus; test: Toxicity against Trypanosoma cruzi infected CD1 mouse assessed as effect on liver histology at 300 mg/kg, ip; assay type: organism-based; set-up: dose 300 mg/kg, route intraperitoneal; conditions: in vivo
[24] = system: Trypanosoma cruzi; test: Antitrypanosomal activity against Trypanosoma cruzi Tulahuen 2 infected Swiss mouse assessed as suppression of parasitemia at 60 mg/kg/day, po; assay type: functional, organism-based
[25] = system: Trypanosoma cruzi; test: Antitrypanosomal activity against Trypanosoma cruzi Argentinian isolate infected Swiss mouse assessed as suppression of parasitemia at 60 mg/kg/day, po; assay type: functional, organism-based
[26] = system: Trypanosoma cruzi; test: Antitrypanosomal activity against Trypanosoma cruzi Tulahuen 2 infected Swiss mouse assessed as suppression of parasitemia at 120 mg/kg/day, po; assay type: functional, organism-based
[27] = system: Trypanosoma cruzi; test: Antitrypanosomal activity against Trypanosoma cruzi Uruguayan isolate infected CD1 mouse assessed as suppression of parasitemia at 60 mg/kg/day, po after 17 day postinfection; assay type: functional, organism-based
[28] = system: Trypanosoma cruzi; test: Antitrypanosomal activity against Trypanosoma cruzi Tulahuen 2 infected Swiss mouse assessed as reduction in circulating trypomastigotes antibody level at 200 mg/kg/day, po after 90 days postinfection; assay type: functional, organism-based
[29] = system: Trypanosoma cruzi; test: Antitrypanosomal activity against Trypanosoma cruzi Tulahuen 2 infected Swiss mouse assessed as prevention of liver congestion at 200 mg/kg/day, po; assay type: functional, organism-based
[30] = system: Trypanosoma cruzi; test: Antitrypanosomal activity against Trypanosoma cruzi Tulahuen 2 infected Swiss mouse assessed as prevention of muscle inflammatory infiltrates at 200 mg/kg/day, po; assay type: functional, organism-based; conditions: Muscle tissue
[31] = system: Trypanosoma cruzi; test: Antitrypanosomal activity against Trypanosoma cruzi Tulahuen 2 infected Swiss mouse assessed as prevention of heart inflammatory infiltrates at 200 mg/kg/day, po; assay type: functional, organism-based
[32] = system: Trypanosoma cruzi; test: Antitrypanosomal activity against Trypanosoma cruzi Tulahuen 2 infected Swiss mouse assessed as reduction in circulating trypomastigotes antibody level at 200 mg/kg/day, po after 60 days postinfection; assay type: functional, organism-based

[O-][n+]1onc2ccc(/C=C/c3ccc4c(c3)OCO4)cc21
100%: survival at 600 h [3] | survival at 600 h [8]
inactive: Activity [11]
active: Activity [1] | Activity [2] | Activity [4] | Activity [5] | Activity [6] | Activity [7] | Activity [9] | Activity [10]

[O-][n+]1onc2ccc(/C=C\c3ccc4c(c3)OCO4)cc21
active: Activity [1] | Activity [2] | Activity [5] | Activity [7] | Activity [12] | Activity [9] | Activity [10]
inactive: Activity [11]
100%: survival at 600 h [3] | survival at 600 h [8]

CC1CS(=O)(=O)CCN1/N=C/c1ccc([N+](=O)[O-])o1 (configuration not stated) [NIFURTIMOX]
Toxic: Activity [14] | Activity [17] | Activity [23]
Non-toxic: Activity [15] | Activity [19] | Activity [20]
active: Activity [13] | Activity [16] | Activity [18] | Activity [21] | Activity [22]

[O-][n+]1onc2ccc(/C=C/c3ccccc3)cc21
inactive: Activity [11]
100%: survival at 600 h [3] | survival at 600 h [8]
active: Activity [1] | Activity [13] | Activity [24] | Activity [2] | Activity [16] | Activity [18] | Activity [5] | Activity [21] | Activity [7] | Activity [12] | Activity [22] | Activity [9] | Activity [10] | Activity [25] | Activity [26] | Activity [27]
Non-toxic: Activity [14] | Activity [15] | Activity [17] | Activity [19] | Activity [20] | Activity [23]

O=C(Cn1ccnc1[N+](=O)[O-])NCc1ccccc1 [BENZNIDAZOLE]
100%: survival at 600 h [8]
active: Activity [28] | Activity [29] | Activity [30] | Activity [31] | Activity [32] | Activity [5] | Activity [7] | Activity [10] | Activity [11]
